This is an account of results in patent publication US20240058422A1, “GLUCAGON-LIKE PEPTIDE-1 RECEPTOR ANTAGONISTS” (INDIANA UNIVERSITY RESEARCH AND TECHNOLOGY CORPORATION, priority 2022, published 2024).

One data set in a line: Solubility in buffer. The note with it: 80 mM ammonium bicarbonate buffer, pH 7.7, Solubility [mg/mL] 80 mM AmBicarb pH7.7, Table 2; 80 mM AmBicarb pH7.7.
Another data set has as its target GLP-1R (Homo sapiens, UniProt P43220). Briefly: GLP-1 receptor-mediated cAMP induction, luciferase reporter gene antagonism assay. On the set-up: host or cells: HEK 293. As to conditions: Table 2; C16 linker variants of 9-40amide Jant4 K40[X]; antagonism of 0.05 nM GLP-1, HEK 293 cells; read-out: Biactivity IC50. The format is cell-based. How it is done:
GLP-1 Receptor-Mediated cAMP Induction The ability of peptides to stimulate or block cAMP induction at the GLP-1 receptor was examined by a luciferase-based reporter gene assay. Cotransfection of HEK 293 cells with the human GLP-1 receptor (Open Biosystems) and a cAMPinducible (cAMPresponsive element) luciferase gene constituted the cellular construct where receptor activation could be measured. Bioassays were performed by first serum depriving the cells for 16 h in 0.25% bovine growth serum (HyClone)-supplemented Dulbecco's modified Eagle's medium (Invitrogen) and then adding serial dilutions of the peptides over the appropriate concentration ranges in 96-well poly-D-lysine-coated plates (BD Biosciences). For antagonism assays, a constant concentration of GLP-1 (0.05 nM) was added to the assay plate after the diluted peptides. Incubation continued for 5 h at 37° C., 5% CO2 and was followed by the addition of an equivalent volume (100 μL) of LucLite luminescence substrate reagent (Perkin-Elmer). MicroBeta 1450 liquid scintillation counting (Perkin-Elmer) quantified the luminescence signal in counts per second (cps) after shaking the plate at 600 rpm for 3 min. Data was plotted using Origin software (OriginLab) and the effective concentration 50 (EC50) or inhibitory concentration 50 (IC50) was determined by sigmoidal fitting. Potency was determined by comparative analysis of relative EC50 or IC50 values. Each experiment was repeated at least three times with each sample assayed in duplicate.

Starred links: 1 amine or outer side, 2 acyl side, 3 side chain; linkers in the order of their positions; H or OH if unused. Residues, ends and D or L forms follow the SMILES beside them. Groups on a side chain read outwards from the residue. *: point of attachment. γGlu = O=C(O)[C@H](CCC(=O)[*:2])N[*:1]; Palmitoyl = CCCCCCCCCCCCCCCC(=O)*; AEEA = NCCOCCOCC(=O)O

GLP-1R, sequence (P43220 24-463): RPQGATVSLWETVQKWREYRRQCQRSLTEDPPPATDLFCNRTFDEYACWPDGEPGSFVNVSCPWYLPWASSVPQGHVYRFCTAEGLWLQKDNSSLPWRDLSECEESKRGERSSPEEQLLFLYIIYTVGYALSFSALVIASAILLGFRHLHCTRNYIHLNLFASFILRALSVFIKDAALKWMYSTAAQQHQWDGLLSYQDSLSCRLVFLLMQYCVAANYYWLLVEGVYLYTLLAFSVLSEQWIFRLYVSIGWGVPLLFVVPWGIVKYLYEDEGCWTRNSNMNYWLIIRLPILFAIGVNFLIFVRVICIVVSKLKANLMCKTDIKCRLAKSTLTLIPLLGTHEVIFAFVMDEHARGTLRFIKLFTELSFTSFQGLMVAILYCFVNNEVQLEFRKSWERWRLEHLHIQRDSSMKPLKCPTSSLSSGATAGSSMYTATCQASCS

A word on the solubility: it is the concentration that dissolves in the medium under given conditions. As usually defined, the IC50 is the point on the concentration scale where inhibition reaches its midpoint. In “Solubility in buffer”, `CCCCCCCCCCCCCCCC(=O)N[C@@H](CCC(=O)NCCCC[C@H](NC(=O)[C@H](CO)NC(=O)[C@@H]1CCCN1C(=O)[C@@H]1CCCN1C(=O)[C@@H]1CCCN1C(=O)[C@H](C)NC(=O)CNC(=O)[C@H](CO)NC(=O)[C@H](CO)NC(=O)[C@@H]1CCCN1C(=O)CNC(=O)CNC(=O)[C@H](CCCCN)NC(=O)[C@@H](NC(=O)[C@H](CC(C)C)NC(=O)[C@H](Cc1c[nH]c2ccccc12)NC(=O)[C@H](C)NC(=O)[C@@H](NC(=O)[C@H](Cc1ccccc1)NC(=O)[C@H](CCC(=O)O)NC(=O)[C@H](CCCNC(=N)N)NC(=O)[C@@H](NC(=O)[C@H](C)NC(=O)[C@H](CCC(N)=O)NC(=O)[C@H](CCC(=O)O)NC(=O)[C@H](CCC(=O)O)NC(=O)[C@H](CC(C)C)NC(=O)[C@H](Cc1ccc(O)cc1)NC(=O)[C@H](CO)NC(=O)[C@H](CO)NC(=O)[C@@H](NC(=O)[C@@H](N)CC(=O)O)C(C)C)C(C)C)[C@@H](C)CC)C(C)C)C(N)=O)C(=O)O` [compound 52] (H-DVSSYLEEQAVREFIAWLVKGGPSSGAPPPSK([γGlu-Palmitoyl])-NH2; N-terminus assumed) gave a solubility above 20 mg/mL. In addition, at GLP-1R, the IC50 is 12 nM.
For `CCCCCCCCCCCCCCCC(=O)N[C@@H](CCC(=O)N[C@@H](CCC(=O)NCCCC[C@H](NC(=O)[C@H](CO)NC(=O)[C@@H]1CCCN1C(=O)[C@@H]1CCCN1C(=O)[C@@H]1CCCN1C(=O)[C@H](C)NC(=O)CNC(=O)[C@H](CO)NC(=O)[C@H](CO)NC(=O)[C@@H]1CCCN1C(=O)CNC(=O)CNC(=O)[C@H](CCCCN)NC(=O)[C@@H](NC(=O)[C@H](CC(C)C)NC(=O)[C@H](Cc1c[nH]c2ccccc12)NC(=O)[C@H](C)NC(=O)[C@@H](NC(=O)[C@H](Cc1ccccc1)NC(=O)[C@H](CCC(=O)O)NC(=O)[C@H](CCCNC(=N)N)NC(=O)[C@@H](NC(=O)[C@H](C)NC(=O)[C@H](CCC(N)=O)NC(=O)[C@H](CCC(=O)O)NC(=O)[C@H](CCC(=O)O)NC(=O)[C@H](CC(C)C)NC(=O)[C@H](Cc1ccc(O)cc1)NC(=O)[C@H](CO)NC(=O)[C@H](CO)NC(=O)[C@@H](NC(=O)[C@@H](N)CC(=O)O)C(C)C)C(C)C)[C@@H](C)CC)C(C)C)C(N)=O)C(=O)O)C(=O)O` [compound 53] (H-DVSSYLEEQAVREFIAWLVKGGPSSGAPPPSK([γGlu-γGlu-Palmitoyl])-NH2), in that order: above 20 mg/mL and 13 nM.
The matching figures for `CCCCCCCCCCCCCCCC(=O)N[C@@H](CCC(=O)N[C@@H](CCC(=O)N[C@@H](CCC(=O)N[C@@H](CCC(=O)NCCCC[C@H](NC(=O)[C@H](CO)NC(=O)[C@@H]1CCCN1C(=O)[C@@H]1CCCN1C(=O)[C@@H]1CCCN1C(=O)[C@H](C)NC(=O)CNC(=O)[C@H](CO)NC(=O)[C@H](CO)NC(=O)[C@@H]1CCCN1C(=O)CNC(=O)CNC(=O)[C@H](CCCCN)NC(=O)[C@@H](NC(=O)[C@H](CC(C)C)NC(=O)[C@H](Cc1c[nH]c2ccccc12)NC(=O)[C@H](C)NC(=O)[C@@H](NC(=O)[C@H](Cc1ccccc1)NC(=O)[C@H](CCC(=O)O)NC(=O)[C@H](CCCNC(=N)N)NC(=O)[C@@H](NC(=O)[C@H](C)NC(=O)[C@H](CCC(N)=O)NC(=O)[C@H](CCC(=O)O)NC(=O)[C@H](CCC(=O)O)NC(=O)[C@H](CC(C)C)NC(=O)[C@H](Cc1ccc(O)cc1)NC(=O)[C@H](CO)NC(=O)[C@H](CO)NC(=O)[C@@H](NC(=O)[C@@H](N)CC(=O)O)C(C)C)C(C)C)[C@@H](C)CC)C(C)C)C(N)=O)C(=O)O)C(=O)O)C(=O)O)C(=O)O` [compound 54] (H-DVSSYLEEQAVREFIAWLVKGGPSSGAPPPSK([γGlu-γGlu-γGlu-γGlu-Palmitoyl])-NH2): above 20 mg/mL and 21 nM.
As for `CCCCCCCCCCCCCCCC(=O)N[C@@H](CCC(=O)N[C@@H](CCC(=O)N[C@@H](CCC(=O)N[C@@H](CCC(=O)N[C@@H](CCC(=O)N[C@@H](CCC(=O)NCCCC[C@H](NC(=O)[C@H](CO)NC(=O)[C@@H]1CCCN1C(=O)[C@@H]1CCCN1C(=O)[C@@H]1CCCN1C(=O)[C@H](C)NC(=O)CNC(=O)[C@H](CO)NC(=O)[C@H](CO)NC(=O)[C@@H]1CCCN1C(=O)CNC(=O)CNC(=O)[C@H](CCCCN)NC(=O)[C@@H](NC(=O)[C@H](CC(C)C)NC(=O)[C@H](Cc1c[nH]c2ccccc12)NC(=O)[C@H](C)NC(=O)[C@@H](NC(=O)[C@H](Cc1ccccc1)NC(=O)[C@H](CCC(=O)O)NC(=O)[C@H](CCCNC(=N)N)NC(=O)[C@@H](NC(=O)[C@H](C)NC(=O)[C@H](CCC(N)=O)NC(=O)[C@H](CCC(=O)O)NC(=O)[C@H](CCC(=O)O)NC(=O)[C@H](CC(C)C)NC(=O)[C@H](Cc1ccc(O)cc1)NC(=O)[C@H](CO)NC(=O)[C@H](CO)NC(=O)[C@@H](NC(=O)[C@@H](N)CC(=O)O)C(C)C)C(C)C)[C@@H](C)CC)C(C)C)C(N)=O)C(=O)O)C(=O)O)C(=O)O)C(=O)O)C(=O)O)C(=O)O` [compound 55] (H-DVSSYLEEQAVREFIAWLVKGGPSSGAPPPSK([γGlu-γGlu-γGlu-γGlu-γGlu-γGlu-Palmitoyl])-NH2; N-terminus assumed), the solubility in “Solubility in buffer” is above 20 mg/mL. The IC50 on GLP-1R turned out to be 22 nM.
The matching figures for `CCCCCCCCCCCCCCCC(=O)N[C@@H](CCC(=O)NCCOCCOCC(=O)N[C@@H](CCC(=O)NCCOCCOCC(=O)NCCCC[C@H](NC(=O)[C@H](CO)NC(=O)[C@@H]1CCCN1C(=O)[C@@H]1CCCN1C(=O)[C@@H]1CCCN1C(=O)[C@H](C)NC(=O)CNC(=O)[C@H](CO)NC(=O)[C@H](CO)NC(=O)[C@@H]1CCCN1C(=O)CNC(=O)CNC(=O)[C@H](CCCCN)NC(=O)[C@@H](NC(=O)[C@H](CC(C)C)NC(=O)[C@H](Cc1c[nH]c2ccccc12)NC(=O)[C@H](C)NC(=O)[C@@H](NC(=O)[C@H](Cc1ccccc1)NC(=O)[C@H](CCC(=O)O)NC(=O)[C@H](CCCNC(=N)N)NC(=O)[C@@H](NC(=O)[C@H](C)NC(=O)[C@H](CCC(N)=O)NC(=O)[C@H](CCC(=O)O)NC(=O)[C@H](CCC(=O)O)NC(=O)[C@H](CC(C)C)NC(=O)[C@H](Cc1ccc(O)cc1)NC(=O)[C@H](CO)NC(=O)[C@H](CO)NC(=O)[C@@H](NC(=O)[C@@H](N)CC(=O)O)C(C)C)C(C)C)[C@@H](C)CC)C(C)C)C(N)=O)C(=O)O)C(=O)O` [compound 59] (H-DVSSYLEEQAVREFIAWLVKGGPSSGAPPPSK([AEEA-γGlu-AEEA-γGlu-Palmitoyl])-NH2; N-terminus assumed): above 25 mg/mL and 11 nM.
For `CCCCCCCCCCCCCCCC(=O)NCCOCCOCC(=O)N[C@@H](CCC(=O)N[C@@H](CCC(=O)NCCOCCOCC(=O)NCCCC[C@H](NC(=O)[C@H](CO)NC(=O)[C@@H]1CCCN1C(=O)[C@@H]1CCCN1C(=O)[C@@H]1CCCN1C(=O)[C@H](C)NC(=O)CNC(=O)[C@H](CO)NC(=O)[C@H](CO)NC(=O)[C@@H]1CCCN1C(=O)CNC(=O)CNC(=O)[C@H](CCCCN)NC(=O)[C@@H](NC(=O)[C@H](CC(C)C)NC(=O)[C@H](Cc1c[nH]c2ccccc12)NC(=O)[C@H](C)NC(=O)[C@@H](NC(=O)[C@H](Cc1ccccc1)NC(=O)[C@H](CCC(=O)O)NC(=O)[C@H](CCCNC(=N)N)NC(=O)[C@@H](NC(=O)[C@H](C)NC(=O)[C@H](CCC(N)=O)NC(=O)[C@H](CCC(=O)O)NC(=O)[C@H](CCC(=O)O)NC(=O)[C@H](CC(C)C)NC(=O)[C@H](Cc1ccc(O)cc1)NC(=O)[C@H](CO)NC(=O)[C@H](CO)NC(=O)[C@@H](NC(=O)[C@@H](N)CC(=O)O)C(C)C)C(C)C)[C@@H](C)CC)C(C)C)C(N)=O)C(=O)O)C(=O)O` [compound 60] (H-DVSSYLEEQAVREFIAWLVKGGPSSGAPPPSK([AEEA-γGlu-γGlu-AEEA-Palmitoyl])-NH2; N-terminus assumed), in that order: above 25 mg/mL and 5 nM.
In the case of `CCCCCCCCCCCCCCCC(=O)NCCOCCOCC(=O)N[C@@H](CCC(=O)NCCOCCOCC(=O)N[C@@H](CCC(=O)NCCCC[C@H](NC(=O)[C@H](CO)NC(=O)[C@@H]1CCCN1C(=O)[C@@H]1CCCN1C(=O)[C@@H]1CCCN1C(=O)[C@H](C)NC(=O)CNC(=O)[C@H](CO)NC(=O)[C@H](CO)NC(=O)[C@@H]1CCCN1C(=O)CNC(=O)CNC(=O)[C@H](CCCCN)NC(=O)[C@@H](NC(=O)[C@H](CC(C)C)NC(=O)[C@H](Cc1c[nH]c2ccccc12)NC(=O)[C@H](C)NC(=O)[C@@H](NC(=O)[C@H](Cc1ccccc1)NC(=O)[C@H](CCC(=O)O)NC(=O)[C@H](CCCNC(=N)N)NC(=O)[C@@H](NC(=O)[C@H](C)NC(=O)[C@H](CCC(N)=O)NC(=O)[C@H](CCC(=O)O)NC(=O)[C@H](CCC(=O)O)NC(=O)[C@H](CC(C)C)NC(=O)[C@H](Cc1ccc(O)cc1)NC(=O)[C@H](CO)NC(=O)[C@H](CO)NC(=O)[C@@H](NC(=O)[C@@H](N)CC(=O)O)C(C)C)C(C)C)[C@@H](C)CC)C(C)C)C(N)=O)C(=O)O)C(=O)O` [compound 62] (H-DVSSYLEEQAVREFIAWLVKGGPSSGAPPPSK([γGlu-AEEA-γGlu-AEEA-Palmitoyl])-NH2; N-terminus assumed), the solubility in “Solubility in buffer” was above 25 mg/mL. Further, on GLP-1R, the IC50 came to 7 nM.
